In BigSolDB 2.1:

O=C(O)c1ccccc1O
solubility (mole fraction)
Conditions | 298.2 K | 308.2 K | 318.2 K | 328.2 K | 338.2 K
in acetone | 0.137 | 0.139 | 0.156 | 0.196 | –
in isopropanol | 0.144 | 0.161 | 0.173 | 0.195 | 0.214
in n-propanol | 0.132 | 0.15 | 0.163 | 0.179 | 0.195
in water | 0.000295 | 0.000355 | 0.000507 | 0.000699 | 0.000944
